Residues, ends and D or L forms follow the SMILES beside them. *: point of attachment. FITC = O=C1OC2(c3ccc(O)cc3Oc3cc(O)ccc32)c2ccc(NC(=S)*)cc21; βAla = NCCC(=O)O

The first assay addresses T1, Ub (Homo sapiens, UniProt P0CG48).
Test: not given
As to conditions: read-out: dissociation constant of Ub:UIM-1 complex; cited from earlier work. The text has this: We selected the UIM-1 sequence as an experimental model system because it is well characterized, having both the reported dissociation constant and NMR structure (pdb: 1q0w, Figure 1a,c). […] The UIM-1 sequence binds to Ub primarily through a series of hydrophobic contacts around the characteristic “AxxxS” UIM pattern of alanine and serine residues spaced four positions apart. Further, polar and salt bridge contacts may also stabilize the complex. […] The peptide concentration was mainta ...
For “UIM-1: first UIM of the Vps27 protein; literature Kd from a slightly longer variant of the peptide”, the Kd is 277 µM.

Another assay deals with T1, Ub. Nature of the assay: Fluorescence polarization (FP) titration of labelled peptide against Ub. Particulars: 1c (C-terminal Lys side-chain label) relative to 1a (N-terminal label), from FP Kd. For orientation: In fluorescence polarisation assays a small probe gives low polarisation when free and higher when bound to something large.
Consider `CC[C@H](C)[C@H](NC(=O)[C@H](C)NC(=O)[C@H](CCCCN)NC(=O)[C@H](CCCNC(=N)N)NC(=O)[C@@H](NC(=O)[C@H](CC(C)C)NC(=O)[C@H](CCC(=O)O)NC(=O)[C@H](CCC(=O)O)NC(=O)[C@H](CCC(=O)O)NC(=O)[C@H](CC(=O)O)NC(=O)[C@H](CCC(=O)O)NC(=O)CNC(C)=O)[C@@H](C)CC)C(=O)N[C@@H](CCC(=O)O)C(=O)N[C@@H](CC(C)C)C(=O)N[C@@H](CO)C(=O)N[C@@H](CC(C)C)C(=O)N[C@@H](CCCCN)C(=O)N[C@@H](CCC(=O)O)C(=O)N[C@@H](CO)C(=O)NCC(=O)N[C@@H](CCCCNC(=S)Nc1ccc2c(c1)C(=O)OC21c2ccc(O)cc2Oc2cc(O)ccc21)C(N)=O` [1c] (Ac-GEDEEELIRKAIELSLKESGK(FITC)-NH2), for which the “reduction in binding energy” value was 6.5 kJ mol^–1.

Still in this assay, the particulars now being: relative to 1a (UIM-1), from FP Kd; positive = weaker binding.
Turning to `CC[C@H](C)[C@H](NC(=O)[C@H](C)NC(=O)[C@H](CCCCN)NC(=O)[C@H](CCCNC(=N)N)NC(=O)[C@H](C)NC(=O)[C@H](CC(C)C)NC(=O)[C@H](CCC(=O)O)NC(=O)[C@H](CCC(=O)O)NC(=O)[C@H](CCC(=O)O)NC(=O)[C@H](CC(=O)O)NC(=O)[C@H](CCC(=O)O)NC(=O)CNC(=O)CCNC(=S)Nc1ccc2c(c1)C(=O)OC21c2ccc(O)cc2Oc2cc(O)ccc21)C(=O)N[C@@H](CCC(=O)O)C(=O)N[C@@H](CC(C)C)C(=O)N[C@@H](CO)C(=O)N[C@@H](CC(C)C)C(=O)N[C@@H](CCCCN)C(=O)N[C@@H](CCC(=O)O)C(=O)N[C@@H](CO)C(=O)NCC(N)=O` [3a] ({FITC-βAla}-GEDEEELARKAIELSLKESG-NH2), the “ΔΔG for binding Ub” value turned out to be 1.89 kcal/mol. The same measure, in the same setting: the figure for `CC[C@H](C)[C@H](NC(=O)[C@H](CC(C)C)NC(=O)[C@H](CCC(=O)O)NC(=O)[C@H](CCC(=O)O)NC(=O)[C@H](CCC(=O)O)NC(=O)[C@H](CC(=O)O)NC(=O)[C@H](CCC(=O)O)NC(=O)CNC(=O)CCNC(=S)Nc1ccc2c(c1)C(=O)OC21c2ccc(O)cc2Oc2cc(O)ccc21)C(=O)N[C@@H](CCCNC(=N)N)C(=O)N[C@@H](CCCCN)C(=O)N[C@@H](C)C(=O)N[C@@H](C)C(=O)N[C@@H](CCC(=O)O)C(=O)N[C@@H](CC(C)C)C(=O)N[C@@H](CO)C(=O)N[C@@H](CC(C)C)C(=O)N[C@@H](CCCCN)C(=O)N[C@@H](CCC(=O)O)C(=O)N[C@@H](CO)C(=O)NCC(N)=O` [4a] ({FITC-βAla}-GEDEEELIRKAAELSLKESG-NH2) is 1.67 kcal/mol; for `CC[C@H](C)[C@H](NC(=O)[C@H](C)NC(=O)[C@H](CCCCN)NC(=O)[C@H](CCCNC(=N)N)NC(=O)[C@@H](NC(=O)[C@H](CC(C)C)NC(=O)[C@H](CCC(=O)O)NC(=O)[C@H](CCC(=O)O)NC(=O)[C@H](CCC(=O)O)NC(=O)[C@H](CC(=O)O)NC(=O)[C@H](CCC(=O)O)NC(=O)CNC(=O)CCNC(=S)Nc1ccc2c(c1)C(=O)OC21c2ccc(O)cc2Oc2cc(O)ccc21)[C@@H](C)CC)C(=O)N[C@@H](CCC(=O)O)C(=O)N[C@@H](C)C(=O)N[C@@H](CO)C(=O)N[C@@H](CC(C)C)C(=O)N[C@@H](CCCCN)C(=O)N[C@@H](CCC(=O)O)C(=O)N[C@@H](CO)C(=O)NCC(N)=O` [5a] ({FITC-βAla}-GEDEEELIRKAIEASLKESG-NH2) it is 0.239 kcal/mol; for `CC[C@H](C)[C@H](NC(=O)[C@H](C)NC(=O)[C@H](CCCCN)NC(=O)[C@H](CCCNC(=N)N)NC(=O)[C@@H](NC(=O)[C@H](CC(C)C)NC(=O)[C@H](CCC(=O)O)NC(=O)[C@H](CCC(=O)O)NC(=O)[C@H](CCC(=O)O)NC(=O)[C@H](CC(=O)O)NC(=O)[C@H](CCC(=O)O)NC(=O)CNC(=O)CCNC(=S)Nc1ccc2c(c1)C(=O)OC21c2ccc(O)cc2Oc2cc(O)ccc21)[C@@H](C)CC)C(=O)N[C@@H](CCC(=O)O)C(=O)N[C@@H](CC(C)C)C(=O)N[C@@H](CO)C(=O)N[C@@H](C)C(=O)N[C@@H](CCCCN)C(=O)N[C@@H](CCC(=O)O)C(=O)N[C@@H](CO)C(=O)NCC(N)=O` [6a] ({FITC-βAla}-GEDEEELIRKAIELSAKESG-NH2) it is 1.12 kcal/mol.

Take `CC[C@H](C)[C@H](NC(=O)[C@H](C)NC(=O)[C@H](CCCCN)NC(=O)[C@H](CCCNC(=N)N)NC(=O)[C@@H](NC(=O)[C@H](CCC(=O)O)NC(=O)[C@H](CCC(=O)O)NC(=O)[C@H](CCC(=O)O)NC(=O)[C@H](CCC(=O)O)NC(=O)[C@H](CC(=O)O)NC(=O)[C@H](CCC(=O)O)NC(=O)CNC(=O)CCNC(=S)Nc1ccc2c(c1)C(=O)OC21c2ccc(O)cc2Oc2cc(O)ccc21)[C@@H](C)CC)C(=O)N[C@@H](CCC(=O)O)C(=O)N[C@@H](CC(C)C)C(=O)N[C@@H](CO)C(=O)N[C@@H](CC(C)C)C(=O)N[C@@H](CCCCN)C(=O)N[C@@H](CCC(=O)O)C(=O)N[C@@H](CO)C(=O)NCC(N)=O` [7a] ({FITC-βAla}-GEDEEEEIRKAIELSLKESG-NH2): the “ΔΔG for binding Ub” value is 0.669 kcal/mol. In the case of `CC[C@H](C)[C@H](NC(=O)[C@H](C)NC(=O)[C@H](CCCCN)NC(=O)[C@H](CCCNC(=N)N)NC(=O)[C@H](Cc1ccccc1)NC(=O)[C@H](CC(C)C)NC(=O)[C@H](CCC(=O)O)NC(=O)[C@H](CCC(=O)O)NC(=O)[C@H](CCC(=O)O)NC(=O)[C@H](CC(=O)O)NC(=O)[C@H](CCC(=O)O)NC(=O)CNC(=O)CCNC(=S)Nc1ccc2c(c1)C(=O)OC21c2ccc(O)cc2Oc2cc(O)ccc21)C(=O)N[C@@H](CCC(=O)O)C(=O)N[C@@H](CC(C)C)C(=O)N[C@@H](CO)C(=O)N[C@@H](CC(C)C)C(=O)N[C@@H](CCCCN)C(=O)N[C@@H](CCC(=O)O)C(=O)N[C@@H](CO)C(=O)NCC(N)=O` [8a] ({FITC-βAla}-GEDEEELFRKAIELSLKESG-NH2), the “ΔΔG for binding Ub” value was 0.502 kcal/mol. Same read-out and setting: the figure for `CC[C@H](C)[C@H](NC(=O)[C@H](CC(C)C)NC(=O)[C@H](CCC(=O)O)NC(=O)[C@H](CCC(=O)O)NC(=O)[C@H](CCC(=O)O)NC(=O)[C@H](CC(=O)O)NC(=O)[C@H](CCC(=O)O)NC(=O)CNC(=O)CCNC(=S)Nc1ccc2c(c1)C(=O)OC21c2ccc(O)cc2Oc2cc(O)ccc21)C(=O)N[C@@H](CCCNC(=N)N)C(=O)N[C@@H](CCCCN)C(=O)N[C@@H](C)C(=O)N[C@@H](CC(C)C)C(=O)N[C@@H](CCC(=O)O)C(=O)N[C@@H](CC(C)C)C(=O)N[C@@H](CO)C(=O)N[C@@H](CC(C)C)C(=O)N[C@@H](CCCCN)C(=O)N[C@@H](CCC(=O)O)C(=O)N[C@@H](CO)C(=O)NCC(N)=O` [9a] ({FITC-βAla}-GEDEEELIRKALELSLKESG-NH2) is 0.693 kcal/mol; for `CC[C@H](C)[C@H](NC(=O)[C@H](C)NC(=O)[C@H](CCCCN)NC(=O)[C@H](CCCNC(=N)N)NC(=O)[C@@H](NC(=O)[C@H](CC(C)C)NC(=O)[C@H](CCC(=O)O)NC(=O)[C@H](CCC(=O)O)NC(=O)[C@H](CCC(=O)O)NC(=O)[C@H](CC(=O)O)NC(=O)[C@H](CCC(=O)O)NC(=O)CNC(=O)CCNC(=S)Nc1ccc2c(c1)C(=O)OC21c2ccc(O)cc2Oc2cc(O)ccc21)[C@@H](C)CC)C(=O)N[C@@H](CCC(=O)O)C(=O)N[C@@H](CCC(=O)O)C(=O)N[C@@H](CO)C(=O)N[C@@H](CC(C)C)C(=O)N[C@@H](CCCCN)C(=O)N[C@@H](CCC(=O)O)C(=O)N[C@@H](CO)C(=O)NCC(N)=O` [10a] ({FITC-βAla}-GEDEEELIRKAIEESLKESG-NH2) it is -0.072 kcal/mol. On to `CC[C@H](C)[C@H](NC(=O)[C@H](C)NC(=O)[C@H](CCCCN)NC(=O)[C@H](CCCNC(=N)N)NC(=O)[C@@H](NC(=O)[C@H](CC(C)C)NC(=O)[C@H](CCC(=O)O)NC(=O)[C@H](CCC(=O)O)NC(=O)[C@H](CCC(=O)O)NC(=O)[C@H](CC(=O)O)NC(=O)[C@H](CCC(=O)O)NC(=O)CNC(=O)CCNC(=S)Nc1ccc2c(c1)C(=O)OC21c2ccc(O)cc2Oc2cc(O)ccc21)[C@@H](C)CC)C(=O)N[C@@H](CCC(=O)O)C(=O)N[C@@H](CC(C)C)C(=O)N[C@@H](CO)C(=O)N[C@@H](CCC(=O)O)C(=O)N[C@@H](CCCCN)C(=O)N[C@@H](CCC(=O)O)C(=O)N[C@@H](CO)C(=O)NCC(N)=O` [11a] ({FITC-βAla}-GEDEEELIRKAIELSEKESG-NH2), for which the “ΔΔG for binding Ub” value was determined as 1.08 kcal/mol.

Still in this assay, the particulars now being: relative to 1a, from FP Kd.
`CC[C@H](C)[C@H](NC(=O)[C@H](C)NC(=O)[C@H](CCCCN)NC(=O)[C@H](CCCNC(=N)N)NC(=O)[C@@H](NC(=O)[C@H](CC(C)C)NC(=O)[C@H](CCC(=O)O)NC(=O)[C@H](CCC(=O)O)NC(=O)[C@H](CCC(=O)O)NC(=O)[C@H](CC(=O)O)NC(=O)[C@H](CCC(=O)O)NC(=O)CNC(=O)CCNC(=S)Nc1ccc2c(c1)C(=O)OC21c2ccc(O)cc2Oc2cc(O)ccc21)[C@@H](C)CC)C(=O)N[C@@H](CCC(=O)O)C(=O)N[C@@H](CCC(=O)O)C(=O)N[C@@H](CO)C(=O)N[C@@H](CC(C)C)C(=O)N[C@@H](CCCCN)C(=O)N[C@@H](CCC(=O)O)C(=O)N[C@@H](CO)C(=O)NCC(N)=O` [10a] ({FITC-βAla}-GEDEEELIRKAIEESLKESG-NH2): the additional binding energy is given as 0.3 kJ mol^–1.

The record behind these values is PMC11494501, “AlphaFold Ensemble Competition Screens Enable Peptide Binder Design with Single-Residue Sensitivity” (ACS Chemical Biology, 2024).
